{"source": "paper PMC7176540", "about": "(Chembiochem : a European journal of chemical biology, 2019)", "molecular_target": "AlaI (Streptomyces alanosinicus, UniProt A0A6H1Z626)", "assay": "co-purification with the enzyme", "format": "binding", "conditions": "10 uM FAD also added in assay; pH 8.0"}
{"smiles": "Cc1cc2nc3c(=O)[nH]c(=O)nc-3n(C[C@H](O)[C@H](O)[C@H](O)COP(=O)(O)OP(=O)(O)OC[C@H]3O[C@@H](n4cnc5c(N)ncnc54)[C@H](O)[C@@H]3O)c2cc1C", "note": "[FAD]", "values": [{"measurement": "co-purification with the enzyme", "result": "AlaI purified with FAD, hence we still observed activity without exogenous FAD added"}]}
